Data taken from EP4624465A1, “COMPOUND SERVING AS DDR1 KINASE INHIBITOR, AND MEDICINE” (Nippon Shinyaku Co., Ltd., priority 2022, dated 2024).
Structures can show the parent of a compound that is named as a salt.

Experiments:
DDR1 kinase [1] = molecular target: T1, DDR1 kinase (Homo sapiens, UniProt Q08345); test: Evaluation of DDR1 kinase inhibition in DDR1-expressing U2OS cells (type I collagen stimulation, PathHunter detection); assay type: cell-based; design: host or cells: U2OS; conditions: type I collagen 50 µg/mL stimulation, duplicate, read-out: DDR-1 IC50
Method: The solution was further diluted in an E-MEM medium (Fujifilm Wako Pure Chemicals, 051-07615) containing 10% fetal bovine serum (FBS, Gibco, 10270106) to 60000, 6000, 600, 60, 6, and 0.6 nM to prepare test substance solutions. 2. […] On the following day, after the plate was left at room temperature for 1 hour, a detection solution was added to the wells at […] according to the handling instructions for the PathHunter® Detection Kit (DiscoverX, 93-0001), and then incubated at room temperature for 2 hours. After the incubation, a luminescence intensity was measured by Envision (Perkin-Elmer). Tests were performed in duplicate. 3.
Target sequence in this assay (Q08345 19-913): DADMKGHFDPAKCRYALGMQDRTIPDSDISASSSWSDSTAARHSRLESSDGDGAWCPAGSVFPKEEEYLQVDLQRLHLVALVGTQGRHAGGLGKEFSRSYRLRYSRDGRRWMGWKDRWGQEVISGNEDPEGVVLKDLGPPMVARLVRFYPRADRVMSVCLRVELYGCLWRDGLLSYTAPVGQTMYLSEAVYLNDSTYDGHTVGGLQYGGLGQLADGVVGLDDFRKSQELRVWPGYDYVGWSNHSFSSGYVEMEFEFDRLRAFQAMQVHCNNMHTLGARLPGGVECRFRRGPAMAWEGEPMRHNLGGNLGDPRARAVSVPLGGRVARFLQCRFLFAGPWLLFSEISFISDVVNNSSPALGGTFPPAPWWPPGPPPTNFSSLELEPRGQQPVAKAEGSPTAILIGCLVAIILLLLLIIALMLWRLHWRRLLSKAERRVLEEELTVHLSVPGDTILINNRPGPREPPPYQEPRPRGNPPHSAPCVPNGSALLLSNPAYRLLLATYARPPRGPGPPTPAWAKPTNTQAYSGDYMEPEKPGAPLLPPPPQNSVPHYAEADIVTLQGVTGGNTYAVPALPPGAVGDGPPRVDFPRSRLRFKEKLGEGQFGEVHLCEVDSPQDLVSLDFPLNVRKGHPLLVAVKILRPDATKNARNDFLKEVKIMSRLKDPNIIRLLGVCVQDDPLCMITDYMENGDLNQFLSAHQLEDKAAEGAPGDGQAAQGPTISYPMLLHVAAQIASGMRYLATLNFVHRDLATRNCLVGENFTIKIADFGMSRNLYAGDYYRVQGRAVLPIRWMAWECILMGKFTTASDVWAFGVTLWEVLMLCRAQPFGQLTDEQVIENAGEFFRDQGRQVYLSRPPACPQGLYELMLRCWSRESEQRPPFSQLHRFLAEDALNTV

DDR1 kinase [2] = molecular target: T1, DDR1 kinase; test: Evaluation of DDR1 kinase inhibition (LANCE Ultra TR-FRET kinase assay); assay type: biochemical; design: purchased Carna Biosciences 08-113; conditions: DDR1 protein 0.5 nM, LANCE Ultra ULight-poly GAT substrate, 2 hours at room temperature, duplicate; read-out: DDR-1 IC50
Target sequence in this assay (Q08345 19-876 isoform Q08345-2 limits assumed): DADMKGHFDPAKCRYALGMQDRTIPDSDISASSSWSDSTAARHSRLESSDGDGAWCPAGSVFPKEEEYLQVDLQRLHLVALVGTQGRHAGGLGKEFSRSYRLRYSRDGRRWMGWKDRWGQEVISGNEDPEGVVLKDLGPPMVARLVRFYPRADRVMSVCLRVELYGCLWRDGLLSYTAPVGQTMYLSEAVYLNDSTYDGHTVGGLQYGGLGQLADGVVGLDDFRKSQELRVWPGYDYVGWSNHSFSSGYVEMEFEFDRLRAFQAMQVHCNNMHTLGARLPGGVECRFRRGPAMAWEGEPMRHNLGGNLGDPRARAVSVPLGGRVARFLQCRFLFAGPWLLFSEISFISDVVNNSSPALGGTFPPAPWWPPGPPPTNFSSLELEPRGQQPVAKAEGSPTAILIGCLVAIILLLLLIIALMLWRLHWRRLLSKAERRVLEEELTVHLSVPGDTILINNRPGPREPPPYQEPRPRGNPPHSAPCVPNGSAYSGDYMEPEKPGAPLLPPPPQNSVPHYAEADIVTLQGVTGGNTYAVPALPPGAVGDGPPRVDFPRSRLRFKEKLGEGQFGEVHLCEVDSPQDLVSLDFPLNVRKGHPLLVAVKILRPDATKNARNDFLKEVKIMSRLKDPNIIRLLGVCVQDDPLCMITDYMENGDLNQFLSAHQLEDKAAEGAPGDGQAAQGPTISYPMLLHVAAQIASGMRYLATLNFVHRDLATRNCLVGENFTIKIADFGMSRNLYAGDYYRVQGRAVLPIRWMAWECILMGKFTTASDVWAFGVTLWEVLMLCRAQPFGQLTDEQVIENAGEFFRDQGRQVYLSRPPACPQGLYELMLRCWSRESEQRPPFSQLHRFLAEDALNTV

IC50 (DDR1 kinase [1]) | IC50 (DDR1 kinase [2]) | SMILES
170 nM | 5.4 nM | CN(CC(F)(F)F)C(=O)Cn1nc(C2CN(C(=O)c3cc(N)ncc3F)C2)c2c(F)cccc21 [Compound E-59, 2-{3-[1-(2-amino-5-fluoropyridine-4-carbonyl)azetidin-3-yl]-4-fluoro-1H-indazol-1-yl}-N-methyl-N-(2,2,2-trifluoroethyl)acetamide]
140 nM | 5 nM | CN(CC(F)(F)F)C(=O)Cn1nc(C2CN(C(=O)c3cc(N)ncc3F)C2)c2ccccc21 [Compound E-240, 2-{3-[1-(2-amino-5-fluoropyridine-4-carbonyl)azetidin-3-yl}-1H-indazol-1-yl}-N-methyl-N-(2,2,2-trifluoroethyl)acetamide]
1900 nM | 28 nM | Nc1cc(C(=O)N2CC(c3nn(CC(=O)N4CCC[C@@H]4C(F)(F)F)c4cc(F)cc(F)c34)C2)ccn1 [Compound E-50, 2-{3-[1-(2-aminopyridine-4-carbonyl)azetidin-3-yl]-4,6-difluoro-1H-indazol-1-yl]-1-[(2R)-2-(trifluoromethyl)pyrrolidin-1-yl]ethan-1-one]
– | 8.8 nM | Nc1cc(C(=O)N2CC(c3nn(CC(=O)N4CCOC[C@H]4C(F)(F)F)c4cc(F)cc(F)c34)C2)ccn1 [Compound E-123, 2-{3-[1-(2-aminopyridine-4-carbonyl)azetidin-3-yl]-4,6-difluoro-1H-indazol-1-yl}-1-[(3S)-3-(trifluoromethyl)morpholin-4-yl]ethan-1-one]
– | 0.9 nM | Nc1cc(C(=O)N2CC(c3nn(CC(=O)N4CCC[C@H]4C(F)(F)F)c4cc(F)c(F)cc34)C2)c(F)cn1 [Compound E-280]
– | 280 nM | CC1(NC(=O)Cn2nc(C3CN(C(=O)c4ccnc(N)c4)C3)c3ccccc32)CCOCC1 [Compound E-209, 2-{3-[1-(2-aminopyridine-4-carbonyl)azetidin-3-yl]-1H-indazol-1-yl}-N-(4-methyloxan-4-yl)acetamide]

Second part, the molecule before the results:

SMILES | IC50 (DDR1 kinase [1]) | IC50 (DDR1 kinase [2])
Cc1ccnc2c1c(C1CN(C(=O)c3ccnc(N)c3)C1)nn2CC(=O)N1CCC[C@H]1C(F)(F)F [Compound E-15, 2-{3-[1-(2-aminopyridine-4-carbonyl)azetidin-3-yl]-4-methyl-1H-pyrazolo[3,4-b]pyridin-1-yl}-1-[(2S)-2-(trifluoromethyl)pyrrolidin-1-yl]ethan-1-one] | 2600 nM | 210 nM
Nc1cc(C(=O)N2CC(c3cn(CC(=O)N4CCC[C@H]4C(F)(F)F)c4ccccc34)C2)ccn1 [Compound E-11, 2-{3-[1-(2-aminopyridine-4-carbonyl)azetidin-3-yl]-1H-indol-1-yl}-1-[(2S)-2-(trifluoromethyl)pyrrolidin-1-yl]ethan-1-one] | 110 nM | 6.1 nM
Cc1c(C(=O)N2CC(c3nn(CC(=O)N4CCO[C@@H](C(F)(F)F)C4)c4cncc(F)c34)C2)ccnc1N [Compound E-180, 2-{3-[1-(2-amino-3-methylpyridine-4-carbonyl)azetidin-3-yl]-4-fluoro-1H-pyrazolo{3,4-c)pyridin-1-yl}-1-[(2R)-2-(trifluoromethyl)morpholin-4-yl}ethan-1-one] | 3000 nM | 22 nM
Nc1cc(C(=O)N2CC(c3nn(Cc4cn(CC5CC(F)(F)C5)nn4)c4cccc(F)c34)C2)ccn1 [Compound E-19, 4-{3-[1-({1-[(3,3-difluorocyclobutyl)methyl]-1H-1,2,3-triazol-4-yl}methyl)-4-fluoro-1H-indazol-3-yl]azetidine-1-carbonyl}pyridin-2-amine hydrochloride] | 84 nM | 56 nM
Nc1cc(C(=O)N2CC(c3nn(CC(=O)NC4CC5CCC4C5)c4cccc(F)c34)C2)ccn1 (stereo not shown) [Compound E-238, 2-{3-[1-(2-aminopyridine-4-carbonyl)azetidin-3-yl]-4-fluoro-1H-indazol-1-yl}-N-{bicyclo[2.2.1]heptan-2-yl}acetamide] | – | 5.6 nM
Nc1cc(C(=O)N2CC(c3nn(CC(=O)N4CCCc5ccccc54)c4cc(F)cc(F)c34)C2)ccn1 [Compound E-158, 2-{3-[1-(2-aminopyridine-4-carbonyl)azetidin-3-yl]-4,6-difluoro-1H-indazol-1-yl}-1-(1,2,3,4-tetrahydroquinolin-1-yl)ethan-1-one] | – | 0.6 nM
